For orientation: IC50 means the concentration that gives 50% inhibition. By viability, T/C is commonly meant the ratio of treated to control.

This note sets out measurements from PubChem BioAssay AID1845195 (Molecular Pharmacology Branch, DTP, NCI, 2023).

The subject of this experiment is 156681-154-R-J1 tumor spheroid viability. Kind of experiment: Anticancer human tumor 156681-154-R-J1 patient-derived melanoma cell line growth inhibition. To be noted: spheroids with HUVEC and MSC; for viability, T/C: stronger effect = lower value. The method in brief: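 Single agents and combinations were tested on spheroids built from tumor cells plus HUVEC and hMSC, at half-log dilutions starting at or near clinical Cmax, else 10 microM; final DMSO 0.25% (v/v).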

Where “and” joins values, the source holds several entries; their conditions need not be identical. Equal entries are not always repeated.
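Further: spheroids exposed to compounds for 7 days before readout.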
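Wherever viability, T/C is given: percent of vehicle control viability where 100% = DMSO-treated spheroids.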

As for `CNCc1ccc(-c2cc(-c3nc(-c4ccc(S(=O)(=O)C(C)C)cc4)cnc3N)on2)cc1` + Cn1nnc2c(C(N)=O)ncn2c1=O, the IC50 runs as follows: (curve of first compound, second compound 1 µM) 1230 nM; (curve of first compound, second compound 3.16 µM) 915 nM; (curve of first compound, second compound 10 µM) 717 nM; (curve of first compound, second compound 31.6 µM) 494 nM; (curve of first compound, second compound 100 µM) 81.6 nM. Further, the viability, T/C was 107% (second compound 1 µM, first compound 0.00949 µM); 100% (second compound 1 µM, first compound 0.03 µM); 98.8% (second compound 1 µM, first compound 0.0949 µM); 75.5% (second compound 1 µM, first compound 0.3 µM); 62.3% (second compound 1 µM, first compound 0.949 µM); 19% (second compound 1 µM, first compound 3 µM). Further, the viability, T/C was 88.2% (second compound 3.16 µM, first compound 0.00949 µM); 100% (second compound 3.16 µM, first compound 0.03 µM); 90% (second compound 3.16 µM, first compound 0.0949 µM); 72.6% (second compound 3.16 µM, first compound 0.3 µM); 50.7% (second compound 3.16 µM, first compound 0.949 µM); 16.8% (second compound 3.16 µM, first compound 3 µM). For the same compound, the viability, T/C was 93.6% (second compound 10 µM, first compound 0.00949 µM); 73.9% (second compound 10 µM, first compound 0.03 µM); 80.7% (second compound 10 µM, first compound 0.0949 µM); 64.8% (second compound 10 µM, first compound 0.3 µM); 46% (second compound 10 µM, first compound 0.949 µM); 11.1% (second compound 10 µM, first compound 3 µM). Besides, the viability, T/C is 63.5% (second compound 31.6 µM, first compound 0.00949 µM); 65.1% (second compound 31.6 µM, first compound 0.03 µM); 59.5% (second compound 31.6 µM, first compound 0.0949 µM); 59.8% (second compound 31.6 µM, first compound 0.3 µM); 38% (second compound 31.6 µM, first compound 0.949 µM); 5.46% (second compound 31.6 µM, first compound 3 µM). Further, the viability, T/C runs as follows: (second compound 100 µM, first compound 0.00949 µM) 54.2%; (second compound 100 µM, first compound 0.03 µM) 53%; (second compound 100 µM, first compound 0.0949 µM) 54.1%; (second compound 100 µM, first compound 0.3 µM) 34.6%; (second compound 100 µM, first compound 0.949 µM) 22.1%; (second compound 100 µM, first compound 3 µM) 1.01%.
As to `CC(C)n1c(=O)n(C)c2cnc3cc(F)c(-c4ccc(OCCCN5CCCCC5)nc4)cc3c21` + CC[C@@]1(O)C(=O)OCc2c1cc1n(c2=O)Cc2cc3c(CN(C)C)c(O)ccc3nc2-1, the IC50 runs as follows: (curve of first compound, second compound 0.003 µM) above 10000 nM; (curve of first compound, second compound 0.00949 µM) above 10000 nM; (curve of first compound, second compound 0.03 µM) 55.1 nM; (curve of first compound, second compound 0.0949 µM) below 31.6 nM; (curve of first compound, second compound 0.3 µM) below 31.6 nM. In addition, the viability, T/C is 83% (second compound 0.003 µM, first compound 0.0316 µM); 92.7% (second compound 0.003 µM, first compound 0.1 µM); 77.3% (second compound 0.003 µM, first compound 0.316 µM); 78.8% (second compound 0.003 µM, first compound 1 µM); 97.9% (second compound 0.003 µM, first compound 3.16 µM); 85.5% (second compound 0.003 µM, first compound 10 µM). In addition, the viability, T/C reads like this: (second compound 0.00949 µM, first compound 0.0316 µM) 77.2%; (second compound 0.00949 µM, first compound 0.1 µM) 75%; (second compound 0.00949 µM, first compound 0.316 µM) 74.4%; (second compound 0.00949 µM, first compound 1 µM) 76.3%; (second compound 0.00949 µM, first compound 3.16 µM) 80.8%; (second compound 0.00949 µM, first compound 10 µM) 78.8%. The viability, T/C by setting is: (second compound 0.03 µM, first compound 0.0316 µM) 57.8%; (second compound 0.03 µM, first compound 0.1 µM) 44.7%; (second compound 0.03 µM, first compound 0.316 µM) 30.3%; (second compound 0.03 µM, first compound 1 µM) 29.6%; (second compound 0.03 µM, first compound 3.16 µM) 44.8%; (second compound 0.03 µM, first compound 10 µM) 31.7%. Moreover, the viability, T/C is, setting by setting: (second compound 0.0949 µM, first compound 0.0316 µM) 11.9%; (second compound 0.0949 µM, first compound 0.1 µM) 10.2%; (second compound 0.0949 µM, first compound 0.316 µM) 10.8%; (second compound 0.0949 µM, first compound 1 µM) 13.2%; (second compound 0.0949 µM, first compound 3.16 µM) 11.8%; (second compound 0.0949 µM, first compound 10 µM) 13.6%. Moreover, the viability, T/C by setting is: (second compound 0.3 µM, first compound 0.0316 µM) 10.2%; (second compound 0.3 µM, first compound 0.1 µM) 9.03%; (second compound 0.3 µM, first compound 0.316 µM) 9.13%; (second compound 0.3 µM, first compound 1 µM) 9.94%; (second compound 0.3 µM, first compound 3.16 µM) 9.43%; (second compound 0.3 µM, first compound 10 µM) 15%.
Take `[2H]c1nc(C)nc([2H])c1-c1cc(NC[C@@H](C)c2cccc3c(C(=O)NC)ccnc23)ncn1`: the viability, T/C by setting is: (compound 0.0316 µM) 84.5% and 81.3% and 110%; (compound 0.1 µM) 98.4% and 80% and 94.7%; (compound 0.316 µM) 91.8% and 92.6% and 92.1%; (compound 1 µM) 86.1% and 87.3% and 89.5%; (compound 3.16 µM) 91.8% and 77.7% and 88.6%; (compound 10 µM) 86.8% and 70% and 99.2%. Under “curve of compound”, the IC50 is above 10000 nM.
Regarding `Cc1sc2c(c1C)C(c1ccc(Cl)cc1)=NC(CC(=O)Nc1ccc(O)cc1)c1nnc(C)n1-2` (stereo not drawn), the viability, T/C is, setting by setting: (compound 0.00949 µM) 77.1% and 103% and 87%; (compound 0.03 µM) 89.1% and 92% and 94.1%; (compound 0.0949 µM) 83.7% and 95.2% and 98%; (compound 0.3 µM) 70% and 80.3% and 96.3%; (compound 0.949 µM) 70.8% and 58.4% and 64.4%; (compound 3 µM) 38.2% and 42.2% and 73%. For the same compound, the half-maximal inhibitory concentration (IC50) (curve of compound) was 1920 nM and 1730 nM and > 3000 nM.
On to `Cn1ncnc1[C@H]1c2n[nH]c(=O)c3cc(F)cc(c23)N[C@@H]1c1ccc(F)cc1`, for which the viability, T/C (compound 0.00949 µM) was 69.9% and 99.2% and 102%; the viability, T/C (compound 0.03 µM) is 71.1% and 90.5% and 84.6%; the viability, T/C (compound 0.0949 µM) is 79.2% and 71.3% and 86.4%; the viability, T/C (compound 0.3 µM) was 71.5% and 69% and 85.9%; the viability, T/C (compound 0.949 µM) was 67.1% and 59.8% and 73.4%; the viability, T/C (compound 3 µM) was 8.93% and 21.2% and 16.4%. In addition, the IC50 (curve of compound) is 1330 nM and 993 nM and 1500 nM.
`CC(C)n1c(=O)n(C)c2cnc3cc(F)c(-c4ccc(OCCCN5CCCCC5)nc4)cc3c21`: the viability, T/C (compound 0.0316 µM) is 106% and 92.3% and 88.9%; the viability, T/C (compound 0.1 µM) is 101% (2×) and 102%; the viability, T/C (compound 0.316 µM) is 97.7% and 98.2% and 112%; the viability, T/C (compound 1 µM) was 100% and 106% and 96.7%; the viability, T/C (compound 3.16 µM) is 98.3% and 109% (2×); the viability, T/C (compound 10 µM) was 78.9% and 100% and 96.5%. Also, the IC50 (curve of compound) is above 10000 nM.
